Reference: PMC11619365, “Histone deacetylase 2 and 3 of Sarcoptes scabiei: characterization of a potential drug target” (Microbiology Spectrum, 2024)

Assays:
Assay type in all cases: biochemical
rSsHDAC-3 [1] = biological target: T1, rSsHDAC-3 (Sarcoptes scabiei, UniProt A0A834REN1); assay: fluorogenic trypsin-coupled deacetylase assay (excitation […] nm, emission […] nm); conditions: HEPES pH 8.0, 1 mM MgCl2, 37 °C, 2 h
T1 construct: ORF 411 residues (1,236 bp; amplified fragment printed as around 1,000 bp), pET32a(+) N-terminal Trx/His tag kept (about 18 kDa), 63 kDa on SDS-PAGE, E. coli BL21(DE3), soluble, Ni-NTA; no co-repressor partner
T1 sequence (A0A834REN1 1-411): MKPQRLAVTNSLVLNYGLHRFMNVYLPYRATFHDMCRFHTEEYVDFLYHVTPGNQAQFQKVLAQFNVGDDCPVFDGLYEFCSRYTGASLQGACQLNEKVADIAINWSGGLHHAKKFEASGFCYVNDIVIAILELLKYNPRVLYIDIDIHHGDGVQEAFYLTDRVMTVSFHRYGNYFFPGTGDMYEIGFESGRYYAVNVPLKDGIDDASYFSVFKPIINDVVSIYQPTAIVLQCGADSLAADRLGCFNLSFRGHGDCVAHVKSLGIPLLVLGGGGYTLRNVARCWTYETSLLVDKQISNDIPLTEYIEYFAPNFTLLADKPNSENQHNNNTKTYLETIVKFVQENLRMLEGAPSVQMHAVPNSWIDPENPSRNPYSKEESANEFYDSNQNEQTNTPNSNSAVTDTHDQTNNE

rSsHDAC-2 = biological target: T2, rSsHDAC-2 (Sarcoptes scabiei, UniProt A0A834RGW6); assay: fluorogenic trypsin-coupled deacetylase assay; conditions: Boc-Lys(ε-Ac)-AMC substrate buffer 100 µM (25 of 50 µL), HEPES pH 8.0, 1 mM MgCl2, 37 °C, 2 h; inhibitor concentration as printed, but 1 µL of it added to 50 µL, so final concentration unclear
T2 sequence (A0A834RGW6 1-304): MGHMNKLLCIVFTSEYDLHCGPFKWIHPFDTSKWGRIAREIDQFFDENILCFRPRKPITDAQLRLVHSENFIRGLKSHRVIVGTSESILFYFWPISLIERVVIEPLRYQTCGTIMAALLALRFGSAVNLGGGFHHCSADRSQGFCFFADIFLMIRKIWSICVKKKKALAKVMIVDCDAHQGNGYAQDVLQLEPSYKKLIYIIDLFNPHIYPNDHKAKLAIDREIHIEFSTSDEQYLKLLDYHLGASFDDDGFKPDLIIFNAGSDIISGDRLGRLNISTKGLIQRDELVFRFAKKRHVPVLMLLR

rSsHDAC-3 [2] = biological target: T1, rSsHDAC-3; assay: fluorogenic trypsin-coupled deacetylase assay

SMILES: CC(=O)NCCCC[C@H](NC(=O)OC(C)(C)C)C(=O)Nc1ccc2c(C)cc(=O)oc2c1 [Boc-Lys(ε-Ac)-AMC]
- fluorogenic trypsin-coupled deacetylase assay (excitation 355 nm, emission 460 n) (rSsHDAC-3 [1]): whereas the intensity in the rSsHDAC-3 group increased significantly

SMILES: COc1ccccc1NC(=O)NCc1ccc(C(=O)NO)cc1 [Elevenostat]
- % inhibition at 10 μM (rSsHDAC-2): 81.2%

SMILES: Nc1cc(F)ccc1NC(=O)/C=C/c1cnn(C/C=C/c2ccccc2)c1 [RGFP966]
- inhibition at 10 µM (rSsHDAC-3 [2]): 68.9%
